Source: US20200031820A1, “3-CARBOXYLIC ACID PYRROLES AS NRF2 REGULATORS” (GLSXOSMITHKLINE INTELLECTUAL PROPERTY DEVELOPMENT LIMITED, priority 2016, published 2020)

Columns and labels:
[1] = target: T1, full length NRF2 protein and full length Keap1 protein (Homo sapiens, UniProt Q14145); assay: NRF2-Keap1 TR-FRET Low Protein Assay; format: binding; conditions: Keap1 FlagHis, biotin-NRF2
T1 construct: full length NRF2 protein and full length Keap1 protein; His
Text: NRF2-Keap1 TR-FRET Low Protein Assay In the NRF2-Keap1 TR-FRET (time-resolved fluorescence resonance energy transfer) low protein assay, full length NRF2 protein and full length Keap1 protein (Keap1 exists a dimer) are used. The assay detects a compound's ability to displace the binding of Keap1 FlagHis with biotinylated Avi-NRF2 protein. Biotin-NRF2 binds to streptavidin-europium (a component of the detection mix) and Keap1 FlagHis is recognized by anti-Flag APC (allophycocyanin) antibody (also a component of the detection mix). If binding occurs between the two proteins, there will be an energy transfer from the Eu+3 (donor) at 615 nm to the APC (acceptor) at 665 nm. A potential NRF2 inhibitor will cause a reduction in the TR-FRET signal by interfering with the binding of Keap1 to NRF2.
Ten nanoliters of 100× compound dose response curves (serial 3-fold dilutions) in DMSO were stamped using an Echo liquid handling system (Labcyte) into 384-well, low volume, black assay plates (Greiner, #784076), with DMSO in columns 6 and 18. An additional 90 nl DMSO was added to each well, to bring the total volume to 100 nl per well. The top concentration of compound was located in columns 1 and 13, with the serial dilutions going across the row. All reagents were diluted in assay buffer (50 mM Tris, pH 8.0, 5 mM MgCl2, 100 mM NaCl, 0.005% BSA, 1 mM DTT, and 2 mM CHAPS. The BSA, DTT, and CHAPS were added to the assay buffer on the day of assay. Using a Multidrop Combi (Thermo Electron Corporation) equipped with a metal tip dispenser, 5 ul of 1.25 nM Keap1 FlagHis protein was added to all wells of the compound plate, with the exception of the wells in column 18. Wells in column 18 received 5 ul of assay buffer instead. Plates were centrifuged at 500 rpm for 1 minute, covered with a plate lid, and incubated at 37° C. for 2.25 hours. Plates were then removed from the incubator and allowed to cool to RT for 15 minutes. Five microliters of 2.5 nM biotin-NRF2 protein was then added to all wells of the plates and the plates were spun at 500 rpm for 1 minute, followed by incubating at 4° C. for 1.25 hours. The plates were then allowed to warm to RT for 15 minutes, followed by the addition of 10 ul of detection mix (1 nM Streptavidin Eu+ W1024 and 5 ug/ml mouse anti-DYKDDDDK IgG conjugated to SureLight APC antibody; both from Columbia Biosciences) to all wells. Plates were spun at 500 rpm for 1 minute, incubated for 1 hour at RT, and read on an Envision plate reader using a 320 nm excitation filter and 615 nm and 665 nm emission filters. Compound response (% inhibition) and potency (pIC50) were calculated based on the ratio of the two emissions (665 nm/615 nm) and then the transformed data is normalized against controls in the assay (control 1=1% DMSO in the presence of NRF2 and Keap1 protein and control 2=1% DMSO in the presence of only the NRF2 protein). Data analysis was handled using the software package Abase XE (Surrey, United Kingdom). The % inhibition values were calculated from the ratio (transformed) data by the equation:
100−(100*(compound response−average control 2)/(average control 1−average control2)).
For calculation of pIC50s, Abase XE used a four-parameter equation.
IC50s<10 nM (+++++), IC50s 10-100 nM (++++), IC50s 100 nM-1 uM (+++), IC50s 1-10 uM (++). & IC50s 10 uM-100 uM (+), IC50s >100 uM (−), or were not determined (ND).

[2] = system: NQO1 specific enzyme activity in BEAS-2B cells (marker for NRF2 activation); assay: Beas2B NQO1 MTT Assay; format: cell-based; conditions: Homo sapiens, NQO1 specific activity induction, 48 hours with compound
Text: NAD(P)H:quinone oxidoreductase 1 (NQO1), also called DT diaphorase, is a homodimeric FAD-containing enzyme that catalyses obligatory NAD(P)H-dependent two-electron reductions of quinones and protects cells against the toxic and neoplastic effects of free radicals and reactive oxygen species arising from one-electron reductions. The transcription of NQO1 is finely regulated by NRF2, and thus NQO1 activity is a good marker for NRF2 activation. On day one, frozen BEAS-2B cells (ATCC) were thawed in a water bath, counted, and re-suspended at a concentration of 250,000 cells/mL. Fifty microliters of cells were plated in 384 well black clear-bottomed plates. Plates were incubated at 37° C., 5% CO2 overnight. On day two, plates were centrifuged and 50 nL of compound or controls were added to the cells. Plates were then incubated at 37° C., 5% CO2 for 48 hours. On day four, medium was aspirated from the plate and crude cell lysates were made by adding 13 uL of 1× Cell Signaling Technologies lysis buffer with 1 Complete, Mini, EDTA-free Protease Inhibitor Tablet (Roche) for each 10 mL of lysis buffer. After lysis plates were incubated for 20 minutes at room temperature. Two microliters of lysate were removed for use in Cell Titer Glo assay (Promega) and MTT cocktail was prepared (Prochaska et. al. 1998) for measurement of NQO1 activity. Fifty microliters of MTT cocktail was added to each well, plate was centrifuged, and analysed on an Envision plate reader (Perkin Elmer) using Absorbance 570 nm label for 30 minutes. Product formation was measured kinetically and the pEC50 of NQO1 specific activity induction was calculated by plotting the change in absorbance (Delta OD/min) versus the log of compound concentration followed by 3-parameter fitting.
EC50s <1 nM (+++++), EC50s 10 nM-1 nM (++++), EC50s 10-100 nM (+++), EC50s 100 nM-1 μM (++), EC50s 1-10 μM (+), EC50s >10 μM (−), or were not determined (ND).

T1 sequence (Q14145 whole entry): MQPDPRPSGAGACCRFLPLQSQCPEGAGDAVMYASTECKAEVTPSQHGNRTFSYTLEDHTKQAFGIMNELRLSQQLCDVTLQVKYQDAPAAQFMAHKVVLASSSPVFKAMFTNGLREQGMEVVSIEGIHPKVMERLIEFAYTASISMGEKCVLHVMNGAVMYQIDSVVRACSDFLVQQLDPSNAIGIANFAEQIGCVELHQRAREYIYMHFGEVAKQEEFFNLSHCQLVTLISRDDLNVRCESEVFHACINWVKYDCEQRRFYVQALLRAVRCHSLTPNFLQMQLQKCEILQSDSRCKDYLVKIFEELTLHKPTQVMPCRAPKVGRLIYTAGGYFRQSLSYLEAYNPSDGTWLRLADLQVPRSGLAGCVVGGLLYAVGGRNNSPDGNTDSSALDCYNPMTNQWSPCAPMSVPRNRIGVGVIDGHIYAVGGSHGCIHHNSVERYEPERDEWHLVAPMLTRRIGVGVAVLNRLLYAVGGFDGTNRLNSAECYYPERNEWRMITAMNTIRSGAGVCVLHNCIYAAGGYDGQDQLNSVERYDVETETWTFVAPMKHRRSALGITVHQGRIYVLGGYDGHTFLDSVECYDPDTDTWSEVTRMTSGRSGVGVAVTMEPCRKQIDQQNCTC

EC50 [1] [nM]	Structure (SMILES)	EC50 [2] [nM]
10000 to 100000	C[C@H]1Cc2ccc(C(F)(F)F)cc2S(=O)(=O)N(C2CCc3c2cccc3-n2ccc(C(=O)O)c2C2CC2)C1 (mixture of isomers) [Example 12, 2-Cyclopropyl-1-(1-((S)-4-methyl-1,1-dioxido-8-(trifluoromethyl)-4,5-dihydrobenzo[f][1,2]thiazepin-2(3H)-yl)-2,3-dihydro-1H-inden-4-yl)-1H-pyrrole-3-carboxylic acid]	100 to 1000
100 to 1000	Cc1c(CN2C[C@@H](C)Cc3ccc(C(F)(F)F)cc3S2(=O)=O)cccc1-n1ccc(C(=O)O)c1[C@@H]1C[C@H]1c1cn(C)nn1 (racemic) [Example 10, rac-2-(trans-2-(1-methyl-1H-1,2,3-triazol-4-yl)cyclopropyl)-1-(2-methyl-3-(((S)-4-methyl-1,1-dioxido-8-(trifluoromethyl)-4,5-dihydrobenzo[f][1,2]thiazepin-2(3H)-yl)methyl)phenyl)-1H-pyrrole-3-carboxylic acid]	100 to 1000
10 to 100	CCC[C@@H]1CCCCN1C(=O)c1cccc(-c2cccc(-n3ccc(C(=O)O)c3[C@@H]3C[C@H]3c3cn(C)nn3)c2)c1F (racemic) [Example 15, 1-(2′-fluoro-3′-((R)-2-propylpiperidine-1-carbonyl)-[1,1′-biphenyl]-3-yl)-2-(trans-2-(1-methyl-1H-1,2,3-triazol-4-yl)cyclopropyl)-1H-pyrrole-3-carboxylic acid]	1 to 10
10 to 100	CCCC[C@H]1Cc2ccc(C(F)(F)F)cc2S(=O)(=O)N(Cc2cccc(-n3ccc(C(=O)O)c3[C@@H]3C[C@H]3c3cn(C)nn3)c2)C1 [Example 6, 1-(3-(((S)-4-butyl-1,1-dioxido-8-(trifluoromethyl)-4,5-dihydrobenzo[f][1,2]thiazepin-2(3H)-yl)methyl)phenyl)-2-((1R,2R)-2-(1-methyl-1H-1,2,3-triazol-4-yl)cyclopropyl)-1H-pyrrole-3-carboxylic acid]	< 1
10 to 100	CC[C@H]1Cc2cc(C(F)(F)F)ccc2S(=O)(=O)N(Cc2cccc(-n3ccc(C(=O)O)c3[C@@H]3C[C@H]3c3cn(C)nn3)c2)C1 [Example 7, 1-(3-(((S)-4-ethyl-1,1-dioxido-7-(trifluoromethyl)-4,5-dihydrobenzo[f][1,2]thiazepin-2(3H)-yl)methyl)phenyl)-2-((1R,2R)-2-(1-methyl-1H-1,2,3-triazol-4-yl)cyclopropyl)-1H-pyrrole-3-carboxylic acid]	1 to 10

Further lines, the compound ahead of its results:

Structure (SMILES)	EC50 [1] [nM]	EC50 [2] [nM]
C[C@H]1Cc2ccc(C(F)(F)F)cc2S(=O)(=O)N(Cc2cccc(-n3ccc(C(=O)O)c3[C@@H]3C[C@H]3c3cn(C)nn3)c2)C1 (racemic) [Example 1, 1-(3-(((S)-4-Methyl-1,1-dioxido-8-(trifluoromethyl)-4,5-dihydrobenzo[f]-[1,2]thiazepin-2(3H)-yl)methyl)phenyl)-2-(trans-2-(1-methyl-1H-1,2,3-triazol-4-yl)cyclopropyl)-1H-pyrrole-3-carboxylic acid]	10 to 100	10 to 100
C[C@H]1Cc2cc(C(F)(F)F)ccc2S(=O)(=O)N(Cc2cccc(-n3ccc(C(=O)O)c3[C@@H]3C[C@H]3c3cn(C)nn3)c2)C1 (racemic) [Example 2, 1-(3-(((S)-4-methyl-1,1-dioxido-7-(trifluoromethyl)-4,5-dihydrobenzo[f][1,2]thiazepin-2(3H)-yl)methyl)phenyl)-2-(trans-2-(1-methyl-1H-1,2,3-triazol-4-yl)cyclopropyl)-1H-pyrrole-3-carboxylic acid]	10 to 100	10 to 100
Cc1ccc(CN2C[C@@H](C)Cc3ccc(C(F)(F)F)cc3S2(=O)=O)cc1-n1ccc(C(=O)O)c1[C@@H]1C[C@H]1c1cn(C)nn1 (racemic) [Example 11, rac-2-(trans-2-(1-methyl-1H-1,2,3-triazol-4-yl)cyclopropyl)-1-(2-methyl-5-(((S)-4-methyl-1,1-dioxido-8-(trifluoromethyl)-4,5-dihydrobenzo[f][1,2]thiazepin-2(3H)-yl)methyl)phenyl)-1H-pyrrole-3-carboxylic acid]	1000 to 10000	100 to 1000
C[C@H](Oc1cccc(-c2cccc(-n3ccc(C(=O)O)c3[C@@H]3C[C@H]3c3cn(C)nn3)c2)c1)C1CCCCC1 (racemic) [Example 13, 1-(3′-((S)-1-Cyclohexylethoxy)-[1,1′-biphenyl]-3-yl)-2-(trans-2-(1-methyl-1H-1,2,3-triazol-4-yl)cyclopropyl)-1H-pyrrole-3-carboxylic acid]	100 to 1000	10 to 100
CCC[C@@H]1CCCCN1C(=O)c1cccc(-c2cccc(-n3ccc(C(=O)O)c3[C@@H]3C[C@H]3c3cn(C)nn3)c2)c1 (racemic) [Example 14, 2-(trans-2-(1-methyl-1H-1,2,3-triazol-4-yl)cyclopropyl)-1-(3′-((R)-2-propylpiperidine-1-carbonyl)-[1,1′-biphenyl]-3-yl)-1H-pyrrole-3-carboxylic acid]	10 to 100	10 to 100
Cn1cc([C@@H]2C[C@H]2c2c(C(=O)O)ccn2-c2cccc(CN3Cc4cc(F)ccc4OC(C)(C)C3)c2)nn1 (racemic) [Example 19]	100 to 1000	100 to 1000
Cn1cc([C@@H]2C[C@H]2c2c(C(=O)O)ccn2-c2cccc(CN3Cc4cc(Br)ccc4OC(C)(C)C3)c2)nn1 (racemic) [Example 20]	100 to 1000	100 to 1000
Cn1cc([C@@H]2C[C@H]2c2c(C(=O)O)ccn2-c2cccc(CN3Cc4ccccc4CC(C)(C)C3)c2)nn1 (racemic) [Example 21]	100 to 1000	100 to 1000
CCCC[C@H]1Cc2ccccc2S(=O)(=O)N(Cc2cccc(-n3ccc(C(=O)O)c3[C@@H]3C[C@H]3c3cn(C)nn3)c2)C1 [Example 3, 1-(3-(((S)-4-butyl-1,1-dioxido-4,5-dihydrobenzo[f][1,2]thiazepin-2(3H)-yl)methyl)phenyl)-2-((1R,2R)-2-(1-methyl-1H-1,2,3-triazol-4-yl)cyclopropyl)-1H-pyrrole-3-carboxylic acid]	10 to 100	10 to 100
